Source: the Kinase Knowledgebase extract (Sharma et al. 2016)

Assays:
PIK3CD (Human) = PIK3CD (Human) (UniProt O00329); assay: Enzyme Assay
PIK3CG (human) = PIK3CG (human) (UniProt P48736); assay: Enzyme Assay
PIK3CA (human) = PIK3CA (human) (UniProt P42336); assay: Inhibition of PIK3CA Kinase Activity
PIK3CB (Human) = PIK3CB (Human) (UniProt P42338); assay: Inhibition of PIK3CB Kinase Activity
Chain of PIK3CB (Human) (P42338 whole entry, looked up): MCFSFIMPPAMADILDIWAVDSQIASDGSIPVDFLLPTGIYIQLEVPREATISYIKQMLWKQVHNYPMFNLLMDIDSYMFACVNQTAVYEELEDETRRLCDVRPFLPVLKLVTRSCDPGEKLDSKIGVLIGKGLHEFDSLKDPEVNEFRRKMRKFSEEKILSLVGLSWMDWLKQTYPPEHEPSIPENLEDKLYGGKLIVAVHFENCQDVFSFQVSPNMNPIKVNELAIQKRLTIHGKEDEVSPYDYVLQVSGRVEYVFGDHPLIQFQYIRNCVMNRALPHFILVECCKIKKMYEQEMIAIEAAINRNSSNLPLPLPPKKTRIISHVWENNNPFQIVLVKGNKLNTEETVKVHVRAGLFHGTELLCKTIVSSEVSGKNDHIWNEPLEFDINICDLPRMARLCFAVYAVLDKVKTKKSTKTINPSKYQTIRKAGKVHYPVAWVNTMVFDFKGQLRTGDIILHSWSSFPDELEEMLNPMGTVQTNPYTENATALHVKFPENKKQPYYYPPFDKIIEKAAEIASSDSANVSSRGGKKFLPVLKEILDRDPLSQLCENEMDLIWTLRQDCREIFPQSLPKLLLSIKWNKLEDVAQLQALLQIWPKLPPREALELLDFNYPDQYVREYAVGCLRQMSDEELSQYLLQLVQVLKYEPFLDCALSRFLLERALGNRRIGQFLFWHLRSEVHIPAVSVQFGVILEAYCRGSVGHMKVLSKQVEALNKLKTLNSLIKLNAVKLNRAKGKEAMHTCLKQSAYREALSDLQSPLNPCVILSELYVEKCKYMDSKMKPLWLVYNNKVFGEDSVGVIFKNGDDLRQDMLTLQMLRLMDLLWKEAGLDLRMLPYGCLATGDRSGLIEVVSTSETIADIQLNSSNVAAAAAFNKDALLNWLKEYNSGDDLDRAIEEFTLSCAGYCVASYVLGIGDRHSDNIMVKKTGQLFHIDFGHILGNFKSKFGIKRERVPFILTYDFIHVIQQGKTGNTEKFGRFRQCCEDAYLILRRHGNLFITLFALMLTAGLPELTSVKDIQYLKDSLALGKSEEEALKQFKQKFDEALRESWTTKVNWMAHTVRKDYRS

Chain of PIK3CG (human) (P48736 whole entry, looked up): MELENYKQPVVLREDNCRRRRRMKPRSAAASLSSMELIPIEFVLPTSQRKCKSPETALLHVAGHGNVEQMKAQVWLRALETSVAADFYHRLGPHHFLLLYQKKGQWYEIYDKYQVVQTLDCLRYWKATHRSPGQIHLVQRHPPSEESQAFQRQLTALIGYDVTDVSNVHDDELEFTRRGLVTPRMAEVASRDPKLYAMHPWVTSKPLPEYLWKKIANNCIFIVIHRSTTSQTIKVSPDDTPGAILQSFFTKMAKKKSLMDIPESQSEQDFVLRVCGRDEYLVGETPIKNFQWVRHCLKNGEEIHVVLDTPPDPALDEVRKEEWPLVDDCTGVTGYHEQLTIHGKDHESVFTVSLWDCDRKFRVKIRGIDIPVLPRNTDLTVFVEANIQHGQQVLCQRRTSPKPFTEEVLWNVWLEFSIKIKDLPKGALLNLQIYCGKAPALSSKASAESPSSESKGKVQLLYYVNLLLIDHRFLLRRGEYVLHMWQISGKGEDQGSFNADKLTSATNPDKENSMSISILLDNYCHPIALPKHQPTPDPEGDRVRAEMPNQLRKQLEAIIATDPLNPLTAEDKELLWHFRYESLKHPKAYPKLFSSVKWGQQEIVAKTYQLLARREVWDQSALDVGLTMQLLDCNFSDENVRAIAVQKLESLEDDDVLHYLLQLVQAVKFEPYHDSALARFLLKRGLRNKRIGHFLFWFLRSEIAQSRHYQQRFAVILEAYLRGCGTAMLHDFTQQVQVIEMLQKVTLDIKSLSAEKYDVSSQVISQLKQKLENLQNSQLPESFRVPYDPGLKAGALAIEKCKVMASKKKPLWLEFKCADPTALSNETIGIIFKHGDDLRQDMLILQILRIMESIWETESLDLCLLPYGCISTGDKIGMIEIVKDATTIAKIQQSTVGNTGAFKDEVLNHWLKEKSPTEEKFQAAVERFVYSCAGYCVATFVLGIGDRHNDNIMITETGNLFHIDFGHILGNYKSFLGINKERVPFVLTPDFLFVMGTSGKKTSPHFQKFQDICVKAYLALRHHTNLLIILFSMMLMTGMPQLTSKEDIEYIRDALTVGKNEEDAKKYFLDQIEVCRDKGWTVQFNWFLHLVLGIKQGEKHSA
Chain of PIK3CD (Human) (O00329 whole entry, looked up): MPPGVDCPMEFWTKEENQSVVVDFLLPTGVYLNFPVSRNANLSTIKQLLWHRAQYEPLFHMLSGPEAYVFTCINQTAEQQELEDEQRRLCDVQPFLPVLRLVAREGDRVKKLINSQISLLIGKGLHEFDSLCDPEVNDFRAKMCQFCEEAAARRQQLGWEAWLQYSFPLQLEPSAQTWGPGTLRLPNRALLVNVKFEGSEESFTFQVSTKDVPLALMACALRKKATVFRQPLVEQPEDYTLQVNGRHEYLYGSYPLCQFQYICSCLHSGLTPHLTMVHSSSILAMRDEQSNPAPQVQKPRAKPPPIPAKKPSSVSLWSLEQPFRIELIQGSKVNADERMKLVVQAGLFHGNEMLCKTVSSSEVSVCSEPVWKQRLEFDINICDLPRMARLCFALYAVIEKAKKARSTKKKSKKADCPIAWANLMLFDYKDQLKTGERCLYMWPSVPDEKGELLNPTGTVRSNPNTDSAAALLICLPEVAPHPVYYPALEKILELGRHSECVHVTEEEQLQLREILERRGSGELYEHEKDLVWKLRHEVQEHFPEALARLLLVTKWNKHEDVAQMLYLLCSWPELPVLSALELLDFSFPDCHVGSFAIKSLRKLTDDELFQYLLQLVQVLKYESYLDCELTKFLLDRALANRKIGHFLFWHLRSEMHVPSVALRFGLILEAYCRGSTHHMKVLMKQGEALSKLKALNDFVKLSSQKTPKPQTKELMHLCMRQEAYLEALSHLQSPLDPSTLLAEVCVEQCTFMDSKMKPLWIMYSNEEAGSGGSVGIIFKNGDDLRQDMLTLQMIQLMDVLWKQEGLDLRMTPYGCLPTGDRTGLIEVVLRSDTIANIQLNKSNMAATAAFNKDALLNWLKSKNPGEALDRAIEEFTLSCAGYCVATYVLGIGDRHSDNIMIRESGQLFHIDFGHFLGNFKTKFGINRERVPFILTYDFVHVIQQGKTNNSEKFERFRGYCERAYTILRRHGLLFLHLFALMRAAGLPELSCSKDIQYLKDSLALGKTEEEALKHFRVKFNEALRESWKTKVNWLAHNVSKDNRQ
Chain of PIK3CA (human) (P42336 whole entry, looked up): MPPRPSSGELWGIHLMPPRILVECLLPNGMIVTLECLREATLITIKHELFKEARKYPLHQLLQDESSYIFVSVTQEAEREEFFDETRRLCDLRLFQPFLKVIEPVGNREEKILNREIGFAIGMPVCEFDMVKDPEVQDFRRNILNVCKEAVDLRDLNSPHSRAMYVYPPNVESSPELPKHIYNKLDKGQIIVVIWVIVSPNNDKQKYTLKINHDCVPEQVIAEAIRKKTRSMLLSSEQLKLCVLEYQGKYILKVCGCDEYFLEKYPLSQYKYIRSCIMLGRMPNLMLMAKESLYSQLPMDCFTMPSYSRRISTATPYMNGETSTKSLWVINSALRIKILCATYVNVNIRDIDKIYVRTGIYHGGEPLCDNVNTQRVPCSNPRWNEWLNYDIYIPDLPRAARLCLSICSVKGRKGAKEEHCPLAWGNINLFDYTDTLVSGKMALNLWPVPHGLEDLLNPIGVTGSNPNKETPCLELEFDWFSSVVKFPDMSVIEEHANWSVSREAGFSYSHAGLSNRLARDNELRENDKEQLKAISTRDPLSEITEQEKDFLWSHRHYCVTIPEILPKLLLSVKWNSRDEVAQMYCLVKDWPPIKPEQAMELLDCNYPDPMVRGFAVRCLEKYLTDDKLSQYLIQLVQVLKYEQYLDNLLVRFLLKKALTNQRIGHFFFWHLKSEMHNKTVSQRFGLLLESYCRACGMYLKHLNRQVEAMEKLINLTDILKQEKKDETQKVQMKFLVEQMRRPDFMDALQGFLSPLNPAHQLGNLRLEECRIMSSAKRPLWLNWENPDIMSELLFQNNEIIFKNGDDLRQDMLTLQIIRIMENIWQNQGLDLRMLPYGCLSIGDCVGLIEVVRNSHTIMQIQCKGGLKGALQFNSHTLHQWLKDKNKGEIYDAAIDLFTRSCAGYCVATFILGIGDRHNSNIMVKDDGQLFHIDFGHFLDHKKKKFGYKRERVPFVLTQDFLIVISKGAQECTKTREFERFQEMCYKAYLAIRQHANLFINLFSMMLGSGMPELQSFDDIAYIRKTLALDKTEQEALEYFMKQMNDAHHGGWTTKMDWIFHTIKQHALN

SMILES	IC50 (PIK3CD (Human))	IC50 (PIK3CG (human))	IC50 (PIK3CA (human))	IC50 (PIK3CB (Human))
CCC(=O)Nc1nc2ccc(-c3nn(C(C)C)c4ncnc(N)c34)cc2s1			100 to 500 nM	
CC(C)n1nc(-c2cc3ccc(O)cc3[nH]2)c2c(N)ncnc21	100 to 500 nM	100 to 500 nM	100 to 500 nM	
CC(=O)Nc1nc2ccc(-c3nn(C4CCOCC4)c4ncnc(N)c34)cc2s1	≤ 50 nM	≤ 50 nM	100 to 500 nM	
CC(C)n1nc(-c2cc3cc(O)cc(Cl)c3[nH]2)c2c(N)ncnc21	25 to 50 nM	25 to 50 nM		
CC(=O)Nc1nc2ccc(-c3nn(C)c4ncnc(N)c34)cc2s1			500 to 1000 nM	
CNC(=O)Nc1nc2ccc(-c3nn(C(C)C)c4ncnc(N)c34)cc2s1	≤ 50 nM	≤ 50 nM	≤ 50 nM	
CNC(=O)Nc1nc2ccc(-c3cn(C(C)C)c4ncnc(N)c34)cc2s1	≤ 50 nM	≤ 50 nM	≤ 50 nM	≤ 50 nM
CC(=O)Nc1nc2ccc(-c3nn(C4CCC4)c4ncnc(N)c34)cc2s1	50 to 100 nM	≤ 50 nM	50 to 100 nM	

Other lines, results leading:

IC50 (PIK3CD (Human))	IC50 (PIK3CG (human))	IC50 (PIK3CA (human))	IC50 (PIK3CB (Human))	SMILES
50 to 100 nM	≤ 50 nM	100 to 500 nM		CC(C)n1nc(-c2ccc3nc(N)sc3c2)c2c(N)ncnc21
≤ 50 nM	≤ 50 nM	50 to 100 nM		CCn1nc(-c2ccc3nc(NC(C)=O)sc3c2)c2c(N)ncnc21
		500 to 1000 nM		CC(C)n1nc(-c2ccc3nc(NCCO)sc3c2)c2c(N)ncnc21
50 to 100 nM	100 to 500 nM			CC(C)n1nc(-c2cc3cc(O)cc(F)c3[nH]2)c2c(N)ncnc21
100 to 500 nM	100 to 500 nM			CC(C)n1nc(-c2cc3cccc(O)c3[nH]2)c2c(N)ncnc21
≤ 50 nM	≤ 50 nM	≤ 50 nM		CC(=O)Nc1nc2ccc(-c3nn(C4CCCC4)c4ncnc(N)c34)cc2s1
≤ 50 nM	≤ 50 nM	≤ 50 nM	≤ 50 nM	CNC(=O)Nc1nc2ccc(-c3cn(C4CCOCC4)c4ncnc(N)c34)cc2s1
		500 to 1000 nM		CC(C)n1nc(-c2ccc3nc(NC(=O)C4CC4)sc3c2)c2c(N)ncnc21
500 to 1000 nM	100 to 500 nM	100 to 500 nM		CCNc1nc2ccc(-c3nn(C(C)C)c4ncnc(N)c34)cc2s1
100 to 500 nM	≤ 50 nM	50 to 100 nM		CNc1nc2ccc(-c3nn(C(C)C)c4ncnc(N)c34)cc2s1
≤ 50 nM	≤ 50 nM	100 to 500 nM		CC(=O)Nc1nc2ccc(-c3nn(C(C)C)c4ncnc(N)c34)cc2s1
≤ 50 nM	≤ 50 nM	≤ 50 nM	50 to 100 nM	CNC(=O)Nc1nc2ccc(-c3cn(C4CCN(C(C)=O)CC4)c4ncnc(N)c34)cc2s1
